In patent US20120238532A1, “TREATMENT OF HUMAN OSTEOSARCOMA” (CEDARS-SINAI MEDICAL CENTER, priority 2009, published 2012):

Tests used:
[1] = tested on: human OS cell lines (U2OS, G292, MG-63, HT-161, HOS, SAOS-2, and SJSA); assay: MTT assay, dose-response in human OS cell lines; assay type: cell-based
Experimental: 7 human OS cell lines (U2OS, G292, MG-63, HT-161, HOS, SAOS-2, and SJSA) were used in the study. Each cell line except HT-161 was obtained from the American Type Culture Collection (ATCC, Rockville, Md.). HT-161 was obtained from Dr. Emil Bogenmann (13). All cell lines were tested and authenticated prior to use according to cell line verification test recommendations by ATCC. OS cell lines were maintained in DMEM medium (Mediatech Inc., Herndon, Va.) supplemented with 10% fetal bovine serum (FBS; Atlanta Biological, Lawrenceville, Ga.) in a humidified incubator at 37° C. supplied with 5% CO2. Only the cells in exponential growth phase were used in the study.
Cell growth and survival were measured by 3-(4,5-dimethylthiazol-2-yl)-2,5-diphenyltetrazolium bromide (MTT) assay. […] After 48 hours of incubation, 10 μl of 5 mg/ml MTT solution (Sigma-Aldrich, St. Louis, Mo.) was added to each well and incubated further for 2 hours. […] For pulse-exposure experiments, MG-63 and SAOS-2 cells were seeded in 96-well plates and exposed to CuB at their ED50. After 2, 9, and 20 hours of exposure, cells were washed twice with PBS and incubated further in CuB-free media. Cell growth was checked by MTT assay at 24, 48, and 72 hours.

[2] = tested on: MG-63 cells; assay: Cell cycle analysis (PI, FACS), MG-63; assay type: cell-based, human
Experimental: Cells were harvested and fixed with 70% ethanol at regular time intervals. Fixed cells were stained with propidium iodide (PI) for flow cytometry analysis using BD FACScan (BD Biosciences, San Jose, Calif.). Distribution of cell cycle was analyzed by ModFit LT V2.0 software (Verity Software House, Topsham, Me.). […] After 24, 48, and 72 hours of exposure, cells were harvested and stained with PI and fluorescein isothiocyanate (FITC) using Annexin V-FITC apoptosis detection kit (BD Biosciences) according to the manufacturer's protocol. Cells were subjected to flow cytometry analysis within one hour of staining.

[3] = tested on: MG-63 xenografts; assay: Growth of MG-63 xenografts in athymic nude mice; assay type: in vivo
Experimental: All animal experiments strictly followed the guidelines of Cedars-Sinai Medical Center and the National Institute of Health (NIH). Female nu/nu athymic nude mice (5-6 weeks old; average weight 21 g; specific pathogen-free) from Harlan Laboratories (Indianapolis, Ind.) were maintained in pathogen-free condition with sterilized chow and water. 5×10^6 cells of MG-63 cells were mixed with 200 μl of Matrigel solution (BD Biosciences) per injection, and the mixture was injected subcutaneously on the upper flanks of nude mice. After 24 hours, tumor size was measured, and any outliers were ruled out by one-way analysis of variance (ANOVA) test. […] The conversion was made using dose translation formula by Reagan-Shaw et al., (15). […] Body weights were monitored every 2 days. Tumor size was measured every 2 days, and the tumor volume was calculated using the following formula: A (length)×B (width)×C (height)×0.5236 (16). The experiment was stopped at day 35, and all mice were sacrificed. The presence of metastatic spread was examined macroscopically at the time of autopsy followed by histological examination. At least two tumors from each group were snap-frozen in liquid nitrogen for Western blotting.

[4] = Body weight and side-effects during xenograft treatment; assay type: in vivo, mice; conditions: week 1, returned to normal in subsequent weeks
Experimental: All animal experiments strictly followed the guidelines of Cedars-Sinai Medical Center and the National Institute of Health (NIH). Female nu/nu athymic nude mice (5-6 weeks old; average weight 21 g; specific pathogen-free) from Harlan Laboratories (Indianapolis, Ind.) were maintained in pathogen-free condition with sterilized chow and water. 5×10^6 cells of MG-63 cells were mixed with 200 μl of Matrigel solution (BD Biosciences) per injection, and the mixture was injected subcutaneously on the upper flanks of nude mice. After 24 hours, tumor size was measured, and any outliers were ruled out by one-way analysis of variance (ANOVA) test. […] The dose of LD-MTX was the murine equivalent of the human dose of LD-MTX. The conversion was made using dose translation formula by Reagan-Shaw et al., (15). […] Body weights were monitored every 2 days. Tumor size was measured every 2 days, and the tumor volume was calculated using the following formula: A (length)×B (width)×C (height)×0.5236 (16). The experiment was stopped at day 35, and all mice were sacrificed. The presence of metastatic spread was examined macroscopically at the time of autopsy followed by histological examination. At least two tumors from each group were snap-frozen in liquid nitrogen for Western blotting.

[5] = molecular target: mTOR (Homo sapiens, UniProt P42345); assay: DARTS analysis, mTOR; assay type: binding; parameters: endogenous in cells; host or cells: MG-63 whole-cell lysate; conditions: MG-63 whole-cell lysates; 10, 100, or 1000 nM, 30 min
Experimental: Direct interaction of CuB and mTOR was assessed by DARTS as described in the original article with some modifications (14). Briefly, confluent MG-63 cells were harvested and lysed with lysis buffer (1% Triton X-100, 150 mM NaCl. 100 mM Tris-HCl, pH 7.4, 1 mM EDTA, and 1 mM EGTA, pH 8.0) supplemented with protease inhibitor (Roche, San Francisco, Calif.), 0.2 mM PMSF (Roche), and 0.2 mM Na3VO4 (Sigma). Cell lysates were incubated with 0.1 volume of increasing concentrations (10-1000 nM) of either DMSO or CuB at room temperature for 30 min. Lysates were then proteolyzed with thermolysin (Sigma) at room temperature for 3 min. Reaction was stopped by adding 0.5 M EDTA solution and 2× Laemmli sample buffer (Bio-Rad, Hercules, Calif.) with 5% β-mercaptoethanol (Sigma). Western blotting was performed as described below.

For `CC(=O)OC(C)(C)/C=C/C(=O)[C@](C)(O)[C@H]1[C@H](O)C[C@@]2(C)[C@@H]3CC=C4[C@H](C[C@H](O)C(=O)C4(C)C)[C@]3(C)C(=O)C[C@]12C` [CuB, cucurbitacin B], the “cytotoxic activity in human OS cells” value [1] was “dose- and time-dependent”, the “increase of G2/M phase” value ([2]; 20 hours of exposure) was “around 3 fold” and the G2/M phase ([2]; 20 hours of exposure at ED50 (control 27%)) was 76%. For the same compound, the tumor growth inhibition ([3]; HD-CuB 1.0 mg/kg alone) was “strong growth inhibition”, the tumor volume ([3]; LD-CuB 0.5 mg/kg, single agent) was “allowed the tumor volume to increase slightly from its original size” and the initial weight loss ([4]; HD-CuB 1.0 mg/kg) was “up to 5%”. For the same compound, the initial weight loss ([4]; LD-CuB 0.5 mg/kg) was “up to 5%” and the “protection of mTOR protein from thermolysin proteolysis (DARTS)” value [5] was “dose-dependent protection of mTOR protein from thermolysin proteolysis”.
